Here are results for 21 molecules from ChEMBL document CHEMBL1142296, “BACE1 inhibitors: optimization by replacing the P1' residue with non-acidic moiety” (Bioorg Med Chem Lett, 2008).

The target in experiment [1] is T1, Beta-secretase 1 (Homo sapiens, UniProt P56817). The experiment in a line: Inhibition of human recombinant BACE1 at 2 uM.
Experiment [2] deals with T1, Beta-secretase 1. Description: Inhibition of human recombinant BACE1 at 0.2 uM.
For experiment [3], the target named is T1, Beta-secretase 1. Description: Inhibition of human recombinant BACE1.

T1 sequence (P56817 whole entry): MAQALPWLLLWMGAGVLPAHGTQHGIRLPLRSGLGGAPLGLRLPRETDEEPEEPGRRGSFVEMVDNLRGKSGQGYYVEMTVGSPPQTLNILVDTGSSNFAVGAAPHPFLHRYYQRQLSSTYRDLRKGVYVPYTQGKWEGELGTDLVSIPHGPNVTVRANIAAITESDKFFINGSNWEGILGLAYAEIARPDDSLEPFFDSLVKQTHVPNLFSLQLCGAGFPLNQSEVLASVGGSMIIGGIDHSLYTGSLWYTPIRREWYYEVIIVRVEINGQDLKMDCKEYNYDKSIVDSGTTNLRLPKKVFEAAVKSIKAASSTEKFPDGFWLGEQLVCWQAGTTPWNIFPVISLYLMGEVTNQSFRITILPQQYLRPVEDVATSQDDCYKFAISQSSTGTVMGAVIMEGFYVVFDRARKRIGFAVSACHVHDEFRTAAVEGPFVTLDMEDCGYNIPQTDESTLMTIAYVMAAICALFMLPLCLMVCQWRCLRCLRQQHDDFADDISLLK

The term inhibition denotes the drop in the measured response relative to a control, in per cent. Regarding `CC(C)C[C@H](NC(=O)[C@@H](NC(=O)[C@@H](N)CCC(=O)O)C(C)C)C(=O)N[C@@H](Cc1ccccc1)[C@@H](O)C(=O)Nc1cccc(C(=O)NS(=O)(=O)C(F)(F)F)c1`, the inhibition in experiment [1] is 86%. For `Cc1nc(NC(=O)[C@H](O)[C@H](Cc2ccccc2)NC(=O)[C@H](CC(C)C)NC(=O)[C@@H](NC(=O)[C@@H](N)CCC(=O)O)C(C)C)sc1C(=O)O`, in experiment [1], the inhibition is 94%. Take `CC(C)C[C@H](NC(=O)[C@@H](NC(=O)[C@@H](N)CNC(=O)c1nn[nH]n1)C(C)C)C(=O)N[C@@H](Cc1ccccc1)[C@@H](O)C(=O)NS(=O)(=O)C(F)(F)F`: the inhibition in experiment [2] stood at 81%; in experiment [1] it was 98%. In the case of `CC(C)C[C@H](NC(=O)[C@@H](NC(=O)[C@@H](N)CCC(=O)O)C(C)C)C(=O)N[C@@H](Cc1ccccc1)[C@@H](O)C(=O)Nc1cccc(O)c1`, the inhibition in experiment [1] was found to be 54%.

For `CC(C)C[C@H](NC(=O)[C@@H](NC(=O)[C@@H](N)CCC(=O)O)C(C)C)C(=O)N[C@@H](Cc1ccccc1)[C@@H](O)C(=O)Nc1ccccc1O`, in experiment [1], the inhibition turned out to be 60%.

For the molecule `CC(C)C[C@H](NC(=O)[C@@H](NC(=O)[C@@H](N)CNC(=O)c1nn[nH]n1)C(C)C)C(=O)N[C@@H](Cc1ccccc1)[C@@H](O)C(=O)Nc1cc([N+](=O)[O-])cc([N+](=O)[O-])c1`, the inhibition was found to be 75% in experiment [2] and 96% in experiment [1]. As to `CC(C)C[C@H](NC(=O)[C@@H](NC(=O)[C@@H](N)CCC(=O)O)C(C)C)C(=O)N[C@@H](Cc1ccccc1)[C@@H](O)C(=O)Nc1cc([N+](=O)[O-])cc([N+](=O)[O-])c1`, in experiment [1], the inhibition was found to be 60%. Regarding `CC(C)C[C@H](NC(=O)[C@@H](NC(=O)[C@@H](N)CNC(=O)c1nn[nH]n1)C(C)C)C(=O)N[C@@H](Cc1ccccc1)[C@@H](O)C(=O)Nc1cc(Br)cc(C(F)(F)F)c1`, the inhibition in experiment [2] was 57%; in experiment [1], 92%.

As to `CC(C)C[C@H](NC(=O)[C@@H](NC(=O)[C@@H](N)CCC(=O)O)C(C)C)C(=O)N[C@@H](Cc1ccccc1)[C@@H](O)C(=O)Nc1cccc([N+](=O)[O-])c1`, in experiment [1], the inhibition amounted to 71%. As for `CC(C)C[C@H](NC(=O)[C@@H](NC(=O)[C@@H](N)CNC(=O)c1nn[nH]n1)C(C)C)C(=O)N[C@@H](Cc1ccccc1)[C@@H](O)C(=O)Nc1cc(C(F)(F)F)cc(C(F)(F)F)c1`, the inhibition in experiment [2] worked out at 68%; in experiment [1], 95%.

On to `CC(C)C[C@H](NC(=O)[C@@H](NC(=O)[C@@H](N)CCC(=O)O)C(C)C)C(=O)N[C@@H](Cc1ccccc1)[C@@H](O)C(=O)Nc1ccccc1`, for which the inhibition in experiment [1] worked out at 53%. For the molecule `CC(C)C[C@H](NC(=O)[C@@H](NC(=O)[C@@H](N)CCC(=O)O)C(C)C)C(=O)N[C@@H](Cc1ccccc1)[C@@H](O)C(=O)Nc1cccc(C(=O)C(F)(F)F)c1`, the inhibition in experiment [1] came out at 51%.

Regarding `CC(C)C[C@H](NC(=O)[C@@H](NC(=O)[C@@H](N)CNC(=O)c1nn[nH]n1)C(C)C)C(=O)N[C@@H](Cc1ccccc1)[C@@H](O)C(=O)Nc1cccc([N+](=O)[O-])c1`, the results for the inhibition in experiment [2] and in experiment [1] were 70% and 96%, respectively. What is called IC50 is the concentration needed to halve the response being measured. As to `CC(C)C[C@H](NC(=O)[C@@H](NC(=O)[C@@H](N)CNC(=O)c1nnn[nH]1)C(C)C)C(=O)N[C@@H](Cc1ccccc1)[C@@H](O)C(=O)Nc1cc(Cl)cc(Cl)c1`, the IC50 in experiment [3] amounted to 14 nM.

With `CCOC(=O)c1sc(NC(=O)[C@H](O)[C@H](Cc2ccccc2)NC(=O)[C@H](CC(C)C)NC(=O)[C@@H](NC(=O)[C@@H](N)CCC(=O)O)C(C)C)nc1C`, the inhibition in experiment [1] was 66%. Still for that read-out and setting: then `CC(C)C[C@H](NC(=O)[C@@H](NC(=O)[C@@H](N)CCC(=O)O)C(C)C)C(=O)N[C@@H](Cc1ccccc1)[C@@H](O)C(=O)Nc1cc(C(F)(F)F)cc(C(F)(F)F)c1`, with 74%. Consider `CC(C)C[C@H](NC(=O)[C@@H](NC(=O)[C@@H](N)CNC(=O)c1nn[nH]n1)C(C)C)C(=O)N[C@@H](Cc1ccccc1)[C@@H](O)C(=O)Nc1cc(Cl)cc(Cl)c1`, for which the inhibition in experiment [2] is 84%; in experiment [1] it was 99%. With `CC(C)C[C@H](NC(=O)[C@@H](NC(=O)[C@@H](N)CCC(=O)O)C(C)C)C(=O)N[C@@H](Cc1ccccc1)[C@@H](O)C(=O)Nc1cc(Cl)cc(Cl)c1`, the inhibition in experiment [1] worked out at 78%. On the same count and under the same terms, the result for `CC(C)C[C@H](NC(=O)[C@@H](NC(=O)[C@@H](N)CCC(=O)O)C(C)C)C(=O)N[C@@H](Cc1ccccc1)[C@@H](O)C(=O)Nc1cc(Cl)c(O)c(Cl)c1` reads 80%. As to `CC(C)C[C@H](NC(=O)[C@@H](NC(=O)[C@@H](N)CNC(=O)c1nn[nH]n1)C(C)C)C(=O)N[C@@H](Cc1ccccc1)[C@@H](O)C(=O)Nc1cccc(OC(F)(F)F)c1`, the inhibition in experiment [2] stood at 72%; in experiment [1] it was 93%. Take `CC(C)C[C@H](NC(=O)[C@@H](NC(=O)[C@@H](N)CNC(=O)c1nnn[nH]1)C(C)C)C(=O)N[C@@H](Cc1ccccc1)[C@@H](O)C(=O)NS(=O)(=O)C(F)(F)F`: the IC50 in experiment [3] amounted to 29.9 nM.
